Data as given in PMC9225715, “Development of PD3 and PD3-B for PDEδ inhibition to modulate KRAS activity” (Journal of Enzyme Inhibition and Medicinal Chemistry, 2022).

Biological target: T1, PDEδ (Homo sapiens, UniProt O43924)
T1 construct: made in house; host or cells: E. coli BL21(DE3)
Assay: Affinity pull-down experiment with bacterial lysate overexpressing PDEδ
Format: binding
Settings: 100 µM PD3-B on NeutrAvidin resin, bacterial lysate 150 µg, DMSO control
Procedure: We subsequently investigated whether PD3-B (5) specifically identifies PDEδ in the complex proteome of bacterial lysate using an affinity pull-down experiment (Figure 5). 100 µM PD3-B (5) was initially incubated with NeutrAvidin resin before incubation with bacterial lysate (150 µg) overexpressing PDEδ. For elution of the bound proteins, an elution buffer (2% SDS in PBS) was added to the resin and gently eluted at room temperature due to the noncovalent interaction between PD3-B (5) and the target protein PDEδ. The eluted samples were subjected to SDS–PAGE (18% polyacrylamide gel), and then the gels were stained with colloidal Coomassie brilliant blue solution to visualise the bound proteins. DMSO was used as a negative control. […] In addition, the intensity of the PDEδ band increased depending on the concentration of PD3-B (5) (Figure 5(B)).
Figure 5. Affinity pull-down assay of bacterial lysate (PDEδ overexpressed) with PD3-B. NeutrAvidin resin was incubated with PD3-B (100 μM) followed by bacterial lysate (150 μg) in PBS buffer. Then, bound proteins were eluted by adding elution buffer (2% SDS in PBS) at room temperature. The eluted samples were subjected to SDS–PAGE (18% polyacrylamide gel). The gels were stained with colloidal Coomassie brilliant blue solution. (A) Colloidal CBB staining of SDS–PAGE gel. Lys: bacterial lysate, FT: flow through in step 1. […]

T1 sequence (O43924 whole entry): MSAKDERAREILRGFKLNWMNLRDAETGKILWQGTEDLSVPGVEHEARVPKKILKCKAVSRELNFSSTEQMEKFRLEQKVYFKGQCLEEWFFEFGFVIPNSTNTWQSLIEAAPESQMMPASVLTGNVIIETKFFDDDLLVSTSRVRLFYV

With `Cc1ccc(-c2nc3ccccc3c3c(-c4cn(CCOCCOCCOCCNC(=O)CCCC[C@H]5SC[C@@H]6NC(=O)N[C@@H]65)nn4)c4ccccn4c23)cc1` [PD3-B, 5-((3aS,4R,6aR)-2-oxohexahydro-1H-thieno[3,4-d]imidazol-4-yl)-N-(2–(2–(2-(2-(4–(6-(p-tolyl)indolizino[3,2-c]quinolin-12-yl)-1H-1,2,3-triazol-1-yl)ethoxy)ethoxy)ethoxy)ethyl)pentanamide] the “Pull down of PDEδ” value was “PDEδ (20 kDa) was only detected in PD3-B (5)”.
